Laboratory results as given in US20160002204A1 (Board of Regents, The University of Texas System, priority 2014, published 2016).

Experiments:
[1] = target: T1, GLS1 (purified recombinant human GAC) (Homo sapiens, UniProt O94925); assay: GLS1 enzymatic activity assay (dual-coupled, Amplex UltraRed/resorufin); type: biochemical
T1 sequence (O94925 55-598 isoform O94925-3 limits assumed): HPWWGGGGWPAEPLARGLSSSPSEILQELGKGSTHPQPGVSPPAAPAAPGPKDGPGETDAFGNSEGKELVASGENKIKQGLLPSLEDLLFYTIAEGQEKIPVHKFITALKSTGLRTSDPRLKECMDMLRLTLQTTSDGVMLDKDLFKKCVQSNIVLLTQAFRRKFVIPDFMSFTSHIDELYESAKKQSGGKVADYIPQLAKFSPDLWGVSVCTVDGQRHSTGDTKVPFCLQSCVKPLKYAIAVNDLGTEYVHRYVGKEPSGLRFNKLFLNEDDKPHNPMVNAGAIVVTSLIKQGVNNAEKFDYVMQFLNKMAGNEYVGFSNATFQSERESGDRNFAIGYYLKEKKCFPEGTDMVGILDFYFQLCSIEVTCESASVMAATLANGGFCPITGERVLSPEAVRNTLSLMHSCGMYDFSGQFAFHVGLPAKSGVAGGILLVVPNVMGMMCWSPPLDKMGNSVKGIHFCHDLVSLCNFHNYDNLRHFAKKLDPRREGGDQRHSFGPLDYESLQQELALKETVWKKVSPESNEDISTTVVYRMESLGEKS
Outline: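 Recombinant human GAC (2 nM) preincubated with 50 mM potassium phosphate, then inhibitor (10 min each, RT); 1 mM glutamine, pH 7.4 Hepes buffer, 1% DMSO. Glutamate coupled via glutamate oxidase/HRP to resorufin (Ex 530/Em 590), kinetic or 20-min endpoint; IC50 by four-parameter logistic fit.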

A549 cells = assay: A549 proliferation (viability) assay, Cell Titer Fluor, 72 hours; type: cell-based; conditions: Homo sapiens
Outline: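 A549 cells seeded at 1000 cells/well, left 24 h, then exposed to compound for 72 h at 37 °C, 5% CO2, final DMSO 0.5% (v/v). Viability read by Cell Titer Fluor fluorescence; EC50 from four-parameter logistic fit.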

Structure (SMILES) | IC50 [1] [µM] | EC50 (A549 cells) [µM]
CC(C)(C)OC(=O)N1CCC(CC(=O)Nc2ccn(CCC(F)Cn3cc(C(=O)NCc4cccc(OC(F)(F)F)c4)nn3)c(=O)c2)CC1 (stereo not drawn) [Example 219, tert-butyl 4-{[(1-{3-fluoro-4-[4-({[3-(trifluoromethoxy)phenyl]methyl}carbamoyl)-1H-1,2,3-triazol-1-yl]butyl}-2-oxo-1,2-dihydropyridin-4-yl)carbamoyl]methyl}piperidine-1-carboxylate] | < 0.1 | < 0.1
CC(C)(C)OC(=O)N1CCC(CC(=O)Nc2ccn(CCC(F)Cn3cc(C(=O)NCc4cccc(OC(F)(F)F)c4)nn3)c(=O)c2)C1 (stereo not drawn) [Example 221, tert-butyl 3-{[(1-{3-fluoro-4-[4-({[3-(trifluoromethoxy)phenyl]methyl}carbamoyl)-1H-1,2,3-triazol-1-yl]butyl}-2-oxo-1,2-dihydropyridin-4-yl)carbamoyl]methyl}pyrrolidine-1-carboxylate] | < 0.1 | < 0.1
CC(C)(C)OC(=O)NCc1cccc(CC(=O)Nc2ccn(CCC(F)Cn3cc(C(=O)NCc4cccc(OC(F)(F)F)c4)nn3)c(=O)c2)c1 (stereo not drawn) [Example 222, tert-butyl N-[(3-{[(1-{3-fluoro-4-[4-({[3-(trifluoro-methoxy)phenyl]methyl}carbamoyl)-1H-1,2,3-triazol-1-yl]butyl}-2-oxo-1,2-dihydropyridin-4-yl)carbamoyl]methyl}phenyl)methyl] carbamate] | < 0.1 | 0.1 to 0.5
O=C(NCc1cccc(OC(F)(F)F)c1)c1cn(CC(F)CCn2ccc(NC(=O)[C@H](O)c3ccccc3)cc2=O)nn1 (stereo partly drawn) [Example 223, 1-(2-fluoro-4-{4-[(2R)-2-hydroxy-2-phenylacetamido]-2-oxo-1,2-dihydropyridin-1-yl}butyl)-N-{[3-(trifluoromethoxy)phenyl]methyl}-1H-1,2,3-triazole-4-carboxamide] | < 0.1 | < 0.1
O=C(NCc1cccc(OC(F)(F)F)c1)c1cn(CC(F)CCn2ccc(NC(=O)[C@@H](O)c3ccccc3)cc2=O)nn1 (stereo partly drawn) [Example 224, 1-(2-fluoro-4-{4-[(2S)-2-hydroxy-2-phenylacetamido]-2-oxo-1,2-dihydropyridin-1-yl}butyl)-N-{[3-(trifluoromethoxy)phenyl]methyl}-1H-1,2,3-triazole-4-carboxamide] | < 0.1 | < 0.1
CC(C)(C)OC(=O)Nc1ccn(CCC(F)Cn2cc(C(=O)NCc3cccc(OC(F)(F)F)c3)nn2)c(=O)c1F (stereo not drawn) [Example 226, tert-butyl N-(3-fluoro-1-{3-fluoro-4-[4-({[3-(trifluoro-methoxy)phenyl]methyl}carbamoyl)-1H-1,2,3-triazol-1-yl]butyl}-2-oxo-1,2-dihydropyridin-4-yl)carbamate] | < 0.1 | < 0.1

The next lines start with the values.

IC50 [1] [µM] | EC50 (A549 cells) [µM] | Structure (SMILES)
< 0.1 | < 0.1 | O=C(CC1CCCC1)Nc1ccn(CCC(F)Cn2cc(C(=O)NCc3cccc(OC(F)(F)F)c3)nn2)c(=O)c1 (stereo not drawn) [Example 220, 1-{4-[4-(2-cyclopentylacetamido)-2-oxo-1,2-dihydropyridin-1-yl]-2-fluorobutyl}-N-{[3-(trifluoromethoxy)phenyl]methyl}-1H-1,2,3-triazole-4-carboxamide]
< 0.1 | 0.1 to 0.5 | O=C(CN1CCC(F)C1)Nc1ccn(CCC(F)Cn2cc(C(=O)NCc3cccc(OC(F)(F)F)c3)nn2)c(=O)c1 (stereo not drawn) [Example 227, 1-(2-fluoro-4-{4-[2-(3-fluoropyrrolidin-1-yl)acetamido]-2-oxo-1,2-dihydropyridin-1-yl}butyl)-N-{[3-(trifluoromethoxy)phenyl]methyl}-1H-1,2,3-triazole-4-carboxamide]
< 0.1 | < 0.1 | O=C(CN1CCSCC1)Nc1ccn(CCC(F)Cn2cc(C(=O)NCc3cccc(OC(F)(F)F)c3)nn2)c(=O)c1 (stereo not drawn) [Example 228, 1-(2-fluoro-4-{2-oxo-4-[2-(thiomorpholin-4-yl)acetamido]-1,2-dihydropyridin-1-yl}butyl)-N-{[3-(trifluoromethoxy)phenyl]methyl}-1H-1,2,3-triazole-4-carboxamide]
